Test results published in US9790227B2, “2-methylsulphanyl-6-nitro-7-oxo-1, 2, 4-triazolo [5, 1-C] [1, 2, 4] triazinide L-arginine dihydrate active toward west nile virus” (LIMITED LIABILITY COMPANY “URAL CENTER OF BIOPHARMACEUTICAL …, priority 2013, dated 2017).

Experiments:
cell culture GMK-AH (1D) = test: Evaluation of cytotoxicity in cell culture GMK-AH (1D); type: cell-based
Procedure: Evaluation of the cytotoxicity of the test compound using a constant cell culture GMK-AH (1D).
To form a continuous monolayer, 1 ml of cell suspension with a density of 200 thousand/ml was added into each tubes and incubate at a temperature (37.0±0.5)° C., 5% CO2.
Then the growth medium was removed and fresh medium containing various concentrations of test drugs (from 1000 to 6.25 µg/ml) was added. The tubes were then incubated for 5 days at a temperature (37.0+0.5)° C., 5% CO2.
Using a light microscope, the state of the monolayer cells was observed: partial or complete destruction of the monolayer cells, damage to individual cells, cell syncytium formation. Control samples were tubes with a monolayer, which included maintenance medium without a drug.

West Nile virus = test: Effectiveness in cell culture GMK-AH (1D) against West Nile virus; type: cell-based
Procedure: Monolayer of the cell culture GMK-AH (1D) was infected with West Nile virus in a dose of 0.05 PFU/cell. Virus was adsorbed at 37° C., 5% CO2, for 60 minutes. At the end of the incubation, the monolayer was washed three times with maintenance medium containing 100 u/ml penicillin and streptomycin to remove non-adsorbed virus, and test compounds were added at a concentration of ½ MIC. The substance was dissolved in maintenance medium to the desired concentration. For each compound, not less than 10 tubes with a monolayer of cells were used. Incubation was performed at 37° C., 5% CO2 for 48 hours. Next, the cryodestruction of cells was performed and the samples were combined. The infectious titer in the combined samples was determined by titration by forming negative colonies under the agar coating in the cell culture GMK-AH (1D).

[1] = cytotoxicity, GMK-AH (1D), 5 days
[2] = 250.0 μg/ml (½ MIC), GMK-AH (1D), 0.05 PFU/cell, 48 hours

## CSc1nc2[nH]nc([N+](=O)[O-])c(=O)n2n1 [Claimed compound, 2-methylsulfanyl-6-nitro-7-oxo-1,2,4-triazolo[5,1-c] [1,2,4]triazinid L-arginine dihydrate]
Cell culture GMK-AH (1D); concentration 7.8 mg/mL, GMK-AH (1D), 5 days
  The frequency of the cytopathic effect of the claimed compound: 0/4
Cell culture GMK-AH (1D); concentration 15.5 mg/mL, GMK-AH (1D), 5 days
  The frequency of the cytopathic effect of the claimed compound: 0/4
Cell culture GMK-AH (1D); concentration 31.3 mg/mL, GMK-AH (1D), 5 days
  The frequency of the cytopathic effect of the claimed compound: 0/4
Cell culture GMK-AH (1D); concentration 62.5 mg/mL, GMK-AH (1D), 5 days
  The frequency of the cytopathic effect of the claimed compound: 0/4
Cell culture GMK-AH (1D); concentration 250.0 mg/mL, GMK-AH (1D), 5 days
  The frequency of the cytopathic effect of the claimed compound: 0/4
Cell culture GMK-AH (1D); concentration 500.0 mg/mL, GMK-AH (1D), 5 days
  The frequency of the cytopathic effect of the claimed compound: 0/4
Cell culture GMK-AH (1D); concentration 1000.0 mg/mL, GMK-AH (1D), 5 days
  The frequency of the cytopathic effect of the claimed compound: 2/4
Cell culture GMK-AH (1D); concentration 125,0 mg/mL, GMK-AH (1D), 5 days
  The frequency of the cytopathic effect of the claimed compound: 0/4
Cell culture GMK-AH (1D); concentration of 500 μg/ml, GMK-AH (1D)
  visible changes in the cell culture: did not cause any visible changes
Cell culture GMK-AH (1D); concluding statement
  toxicity in the concentrations used: nontoxic
Cell culture GMK-AH (1D); cytotoxicity, GMK-AH (1D)
  ½ MIC: 250.0 µg/mL
Cell culture GMK-AH (1D); [1]
  MIC: 500.0 µg/mL
  cytotoxic concentration: 1000.0 µg/mL
West Nile virus; [2]
  Level of the virus accumulation: 4.2 lg PFU/ml
  Reduction of the virus accumulation: 2.3 lg PFU/ml
West Nile virus; Table 2, GMK-AH (1D)
  inhibiting factor: 99.5%
  inhibits the reproduction of West Nile virus: 2.31 g
West Nile virus; concluding statement
  antiviral activity in vitro against West Nile virus: significant antiviral activity
